The values that follow are results of earlier work, collected in paper PMC12664280, “Integrative transcriptomics and peptidomics approach reveals unexpectedly diverse endogenous secretory peptides in Odorrana grahami frog skin” (BMC Biology, 2025).

Where no end group is shown, it is not given here.

The conditions of one series: annotation in words; no reference given, so it comes from the DADP database (table note); ref DADP database; cited from earlier work. The source says: Supplement 12915_2025_2463_MOESM1_ESM.xlsx, sheet "Table S8" | column: Functional effect
As to AALRGCWTKSIPPKPCSGKR [Odorranain-B-RA1], the Functional effect result is “antimicrobial”. Consider ATNIPFKVHFRCKAAFC [Ranatuerin-2R-RA1], for which the Functional effect entry was “antimicrobial”. AVNIPFKVHFRCKAAFC [Ranatuerin-2R-RA2]: the Functional effect result was “antimicrobial”. Consider DANVENGEDAEDLTDKFIGLMG [Andersonin-6], for which the Functional effect entry was “immunomodulating”. Turning to DCTRWIIGINGRICRD [Nigroain-E-RA], the Functional effect entry was “antimicrobial”.

Turning to “FLPAVIRVAANVLPTAFCAISKKC [Brevinin-1-RAA10]”, the Functional effect entry is “antimicrobial”. FLPKLFAGIISKNF [Andersonin-Y2]: the Functional effect entry was “antimicrobial”. For the sequence FLPKLFAKITKKNMAHIR [Andersonin-Y1], the Functional effect result was “antimicrobial”. In the case of FLPPSPWKETFRTS [Odorranain-S-RA], the Functional effect entry was “antimicrobial”. Consider FMPILSCSRFKRC [Odorranain-G-RA2], for which the Functional effect result was “antimicrobial”.

On to GCSRWIIGIHGQICRD [Odorranain-U-RA], for which the Functional effect result was “antimicrobial”. On to “GFMATAKNVAKNMDVTLLDNLKCKITKAC [Odorranain-F-OA4]”, for which the Functional effect result is reported as “antimicrobial”. Regarding “GFMDTAKNVAKNEAGNLLDNLKCKITKAC [Odorranain-F-OA3]”, the Functional effect result is recorded as “antimicrobial”.

Turning to “GFMDTAKNVAKNMAGNLLDNLKCKITKAC [Odorranain-F-OA1]”, the Functional effect result is on record as “antimicrobial”. With “GFMDTAKNVAKNMAVTLLDNLKCKITKAC [Odorranain-F-RA1]”, the Functional effect result is given as “antimicrobial”.

Regarding GIFGKILGVGKKTLCELSGMC [Nigrocin-1-OA2], the Functional effect entry is on record as “antimicrobial”. As for GIFLKVLGVGKKVLCGVSGLC [Nigrocin-1-OA3], the Functional effect entry was “antimicrobial”. Regarding “GIFTLIKGAAKLIGKTVAKEAGKTGLELMACKITNQC [Esculentin-2-RA2]”, the Functional effect entry is “antimicrobial”. Turning to “GILDTFKNMALNAAKSAGVSVLNALSCKLSKTC [Brevinin-2-RA9]”, the Functional effect entry is on record as “antimicrobial”.

“GLFSKFAGKGIKDLIFKGVKHIGKEVGMDVIRTGIDVAGCKIKGEC [Esculentin-1-RA8]”: the Functional effect entry is listed as “antimicrobial”. Consider “GLFSKFAGKGIKNFLIKGVKHIGKEVGMDVIRTGIDVAGCKIKGEC [Esculentin-1-RA5]”, for which the Functional effect result is listed as “antimicrobial”. In the case of “GLFSKFAGKGIKNFLNKGVKHIGKE [Esculentin-1-OA6]”, the Functional effect entry is on record as “antimicrobial”. As for “GLFSKFAGKGIKNLIFKGVKHIGKEVGMDVIRTGIDVAGCKIKGEC [Esculentin-1-RA7]”, the Functional effect result is reported as “antimicrobial”. GLFSKFAGKGIVNFLIEGVE [Andersonin-X1]: the Functional effect entry is listed as “antimicrobial”. Regarding “GLFSKFSGKGIKNFLIKGVKHIGKEVGMDVIRTGIDVAGCKIKGEC [Esculentin-1-OA2]”, the Functional effect result is “antimicrobial”. Take “GLFSKFVGKGIKNFLIKGVKHIGKEVGMDVIRVGIDVAGCKIKGVC [Esculentin-1-OA1]”: the Functional effect entry was “antimicrobial”.

As to “GLFTKFAGKGIKDLIFKGVKHIGKEVGMDVIRTGIDVAGCKIKGEC [Esculentin-1-RA4]”, the Functional effect result is “antimicrobial”. Take “GLFTLIKGAAKLIGKTTAKEAGKTGKLEMACKITNQC [Esculentin-2-OA2]”: the Functional effect result is recorded as “antimicrobial”. In the case of “GLFTLIKGAAKLIGKTVAKEAGKTGLELMACKITNQC [Esculentin-2-OA3]”, the Functional effect entry is reported as “antimicrobial”.

As to GLFTLIKGAYKLDAPTVACN [Odorranain-J-OA1], the Functional effect result is “antimicrobial”. As for GLFTLIKGAYKNDAPTVACN [Odorranain-J-OA2], the Functional effect result is given as “antimicrobial”.

For “GLLDGILNANFNAAKSAGTSVLNALSCKLSKTC [Brevinin-2-OA5]”, the Functional effect entry was “antimicrobial”.

As for “GLLDTFKNLALNAAESAGVSVLNSLSCKLSKTC [Brevinin-2-RA5]”, the Functional effect result is on record as “antimicrobial”. “GLLDTFKNLALNAAKSAGVSVLNSLSCKLSKTC [Brevinin-2-RA11]”: the Functional effect result is on record as “antimicrobial”.

Take “GLLDTFKNMAINAAHGAGVSVLNALSCKLKKTC [Brevinin-2-OA3]”: the Functional effect result is given as “antimicrobial”. Regarding “GLLDTFKNMALNAAKSAGVSVLNALSCKLSKTC [Brevinin-2-OA2]”, the Functional effect entry was “antimicrobial”. “GLLRASSVWGRKYYVDLAGCAKA [Odorranain-W-RA1]”: the Functional effect entry is “antimicrobial”. In the case of GLLSGILGAGKHIVCGLSGLC [Nigrosin-RA2], the Functional effect result is recorded as “antimicrobial”. Consider GLLSGVLGVGKKIVCGLSGLC [Nigrosin-RA3], for which the Functional effect result is “antimicrobial”. As for “GVLATVKNLLIGTGDGAAQSVLKTLSCKLSNDC [Brevinin-2-OA6]”, the Functional effect entry is listed as “antimicrobial”. Regarding “GVLATVKNLLNGTGDGAAQSVLKTLSCKLSNDC [Brevinin-2-OA8]”, the Functional effect result was “antimicrobial”. Regarding “GVLGTVKDLLIGAGKSAAQSTLKTLSCKISNDC [Brevinin-2-OA7]”, the Functional effect entry is “antimicrobial”.

“VIPFVASVAAEMMQHVYCAASKKC [Odorranain-P-RA2]”: the Functional effect entry is “antimicrobial”. Consider “VIVFVASVAAEMMQHVYCAASKKC [Odorranain-P-RA1]”, for which the Functional effect result is “antimicrobial”. For VVKCSYRLGSPDSQCN [Odorranain-A-RA7], the Functional effect result is “antimicrobial”.

The same series, now with this note: annotation in words; ref [4]; cited from earlier work.
Take ENMFNIKSSVESDSFWG [Andersonin-N1]: the Functional effect entry is on record as “Insulin-Releasing, immunomodulating”. As to FIFPKKNIINSLFGR [Andersonin-I1], the Functional effect result is listed as “antimicrobial, Insulin-Releasing, immunomodulating”.

Take GLLSGINAEWPC [OA-GL12]: the Functional effect result was “wound-healing”.

On to QMFHLWYLRHMKNKKPMA [Andersonin-X], for which the Functional effect entry is recorded as “Insulin-Releasing, immunomodulating”. Take TSRCIFYRRKKCS [Andersonin-G]: the Functional effect entry is on record as “antimicrobial,Insulin-Releasing”. Turning to “VAIYGRDDRSDVCRQVQHNWLVCDTY [Andersonin-M3]”, the Functional effect result was “immunomodulating”. VVKFSYRKGSPAPQKN [Odorranain-A-OA12]: the Functional effect entry was “immunomodulating”.

For the next series the following is noted: previously reported ESPs in Odorrana grahami, Table S1; cited from earlier work. The source says: Supplement 12915_2025_2463_MOESM1_ESM.xlsx, sheet "Table S1" | column: Previously reported ESPs in Odorrana grahami
DDASDRAKKFYGLM [ranamargarin]: the “Functional effect: myotropic activities” value is listed as “myotropic activities”. DDTEDLANKFIGLM [tachykinin_OG1]: the “Functional effect: myotropic activities” value is listed as “myotropic activities”. As for QNTYRAPQWAVGHLM [odorranain-BLP-5], the “Functional effect: myotropic activities” value is listed as “myotropic activities”.

With QRECRAPHWAIGHFM [odorranain-BLP-1], the “Functional effect: myotropic activities” value was “myotropic activities”. QREYRAPHWAIGHFM [odorranain-BLP-4]: the “Functional effect: myotropic activities” value is “myotropic activities”. Turning to QREYRTPHWAIGHFM [odorranain-BLP-3], the “Functional effect: myotropic activities” value is on record as “myotropic activities”. As to QSTYRAPQWAVGHLM [odorranain-BLP-2], the “Functional effect: myotropic activities” value is given as “myotropic activities”.

As to RPPGFSPFR [bradykinin], the “Functional effect: myotropic activities” value is “myotropic activities”.

Still in this series, the particulars now being: previously reported ESPs in Odorrana grahami, Table S1; discovered in brain only; cited from earlier work.
On to DYTIRTRLHQESSRKVL [odorranaopin], for which the “Functional effect: opioid peptide” value was “opioid peptide discovered in brain ONLY”.
